Measurements as given in PubChem BioAssay (NCI).
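Dose response: 5 concentrations. Exposure: 48 h. Format: 96-well plates. Endpoint: linear interpolation; highest concentration if not reached. Definition used: TGI = concentration required for complete inhibition of growth.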

Tests used:
Test in all cases: DTP human tumour cell line panel, 48 h
MALME-3M melanoma = test system: MALME-3M melanoma
SF-268 CNS = test system: SF-268 CNS
SK-MEL-5 melanoma = test system: SK-MEL-5 melanoma
OVCAR-8 ovarian = test system: OVCAR-8 ovarian
HOP-92 NSCLC = test system: HOP-92 NSCLC
NCI/ADR-RES ovarian = test system: NCI/ADR-RES ovarian
A498 renal = test system: A498 renal
SF-539 CNS = test system: SF-539 CNS
MOLT-4 leukemia = test system: MOLT-4 leukemia
IGROV1 ovarian = test system: IGROV1 ovarian
SNB-19 CNS = test system: SNB-19 CNS
OVCAR-5 ovarian = test system: OVCAR-5 ovarian
NCI-H226 lung = test system: NCI-H226 lung
A549 NSCLC = test system: A549 NSCLC
U251 CNS = test system: U251 CNS
HL-60(TB) leukemia = test system: HL-60(TB) leukemia
OVCAR-3 ovarian = test system: OVCAR-3 ovarian
OVCAR-4 ovarian = test system: OVCAR-4 ovarian
NCI-H460 lung = test system: NCI-H460 lung
K-562 leukemia = test system: K-562 leukemia
SK-MEL-28 melanoma = test system: SK-MEL-28 melanoma
SW-620 colon = test system: SW-620 colon
NCI-H23 lung = test system: NCI-H23 lung
NCI-H522 lung = test system: NCI-H522 lung
MDA-MB-231 breast = test system: MDA-MB-231 breast
HS 578T breast = test system: HS 578T breast
T-47D breast = test system: T-47D breast
UACC-62 melanoma = test system: UACC-62 melanoma
HCT-15 colon = test system: HCT-15 colon
KM12 colon = test system: KM12 colon
COLO 205 colon = test system: COLO 205 colon
RPMI-8226 leukemia = test system: RPMI-8226 leukemia
SN12C renal = test system: SN12C renal
CAKI-1 renal = test system: CAKI-1 renal
SNB-75 CNS = test system: SNB-75 CNS
LOX IMVI melanoma = test system: LOX IMVI melanoma
HT29 colon = test system: HT29 colon
786-0 renal = test system: 786-0 renal
MDA-N = test system: MDA-N
UACC-257 melanoma = test system: UACC-257 melanoma
M14 melanoma = test system: M14 melanoma
PC-3 prostate = test system: PC-3 prostate
BT-549 breast = test system: BT-549 breast
MDA-MB-435 = test system: MDA-MB-435
UO-31 renal = test system: UO-31 renal
HCT-116 colon = test system: HCT-116 colon
SK-MEL-2 melanoma = test system: SK-MEL-2 melanoma
TK-10 renal = test system: TK-10 renal
HCC-2998 colon = test system: HCC-2998 colon
CCRF-CEM leukemia = test system: CCRF-CEM leukemia
EKVX NSCLC = test system: EKVX NSCLC
DU-145 prostate = test system: DU-145 prostate
ACHN renal = test system: ACHN renal
SF-295 CNS = test system: SF-295 CNS
SK-OV-3 ovarian = test system: SK-OV-3 ovarian
RXF 393 renal = test system: RXF 393 renal
HOP-62 NSCLC = test system: HOP-62 NSCLC

`COc1cc(C/C=C/c2ccccc2)c(OC)cc1O` was tested, and the TGI (MALME-3M melanoma) was 42.4 µM, the TGI (SF-268 CNS) was 59.4 µM and the TGI (SK-MEL-5 melanoma) was 62.3 µM. The TGI (OVCAR-8 ovarian) was 37 µM, the TGI (HOP-92 NSCLC) was 33 µM and the TGI (NCI/ADR-RES ovarian) was 72 µM. The TGI (A498 renal) was over 100 µM, the TGI (SF-539 CNS) was 37.6 µM and the TGI (MOLT-4 leukemia) was 52.8 µM. For the same molecule, the TGI (IGROV1 ovarian) was 37.2 µM, the TGI (SNB-19 CNS) was over 100 µM and the TGI (OVCAR-5 ovarian) was 60.6 µM. For the same molecule, the TGI (NCI-H226 lung) was 79.3 µM, the TGI (A549 NSCLC) was over 100 µM and the TGI (U251 CNS) was 38.2 µM. The TGI (HL-60(TB) leukemia) was 59.9 µM, the TGI (OVCAR-3 ovarian) was 51.1 µM and the TGI (OVCAR-4 ovarian) was 51.3 µM. It also gave a TGI (NCI-H460 lung) of 39.7 µM, a TGI (K-562 leukemia) of 31.6 µM and a TGI (SK-MEL-28 melanoma) of 35.3 µM. The TGI (SW-620 colon) was 43.3 µM, the TGI (NCI-H23 lung) was 42.8 µM and the TGI (NCI-H522 lung) was 40.9 µM. For the same molecule, the TGI (MDA-MB-231 breast) was 52.9 µM, the TGI (HS 578T breast) was 90 µM and the TGI (T-47D breast) was 35.3 µM. It also gave a TGI (UACC-62 melanoma) of 37.7 µM, a TGI (HCT-15 colon) of 37.2 µM and a TGI (KM12 colon) of 30.7 µM. The TGI (COLO 205 colon) was 45.5 µM, the TGI (RPMI-8226 leukemia) was 30.5 µM and the TGI (SN12C renal) was 34.5 µM. The TGI (CAKI-1 renal) was 65.7 µM, the TGI (SNB-75 CNS) was 77.6 µM and the TGI (LOX IMVI melanoma) was 37.4 µM. The TGI (HT29 colon) was 37.8 µM, the TGI (786-0 renal) was 27.7 µM and the TGI (MDA-N) was 33.8 µM. For the same molecule, the TGI (UACC-257 melanoma) was over 100 µM, the TGI (M14 melanoma) was 46.4 µM and the TGI (PC-3 prostate) was 67.2 µM. It also gave a TGI (BT-549 breast) of 58.4 µM, a TGI (MDA-MB-435) of 36.9 µM and a TGI (UO-31 renal) of 31.4 µM. For the same molecule, the TGI (HCT-116 colon) was 31.1 µM, the TGI (SK-MEL-2 melanoma) was 52.3 µM and the TGI (TK-10 renal) was 38.6 µM. For the same molecule, the TGI (HCC-2998 colon) was 37.4 µM, the TGI (CCRF-CEM leukemia) was 52.3 µM and the TGI (EKVX NSCLC) was 33.3 µM. It also gave a TGI (DU-145 prostate) of 37.3 µM and a TGI (ACHN renal) of 52.7 µM.

In the case of `COc1cc(N(C)C)ccc1/C=c1/c2ccccc2n2c1cc(-c1ccccc1)[n+]2C`, the TGI (NCI/ADR-RES ovarian) was over 100 µM, the TGI (A498 renal) was 6.76 µM and the TGI (SF-539 CNS) was 0.873 µM. The TGI (SNB-19 CNS) was 1.58 µM, the TGI (NCI-H226 lung) was 2.11 µM and the TGI (A549 NSCLC) was 1.38 µM. The TGI (SF-295 CNS) was 1.49 µM, the TGI (HL-60(TB) leukemia) was 1.26 µM and the TGI (OVCAR-3 ovarian) was 1.4 µM. It also gave a TGI (OVCAR-4 ovarian) of 2.02 µM, a TGI (NCI-H460 lung) of 1.23 µM and a TGI (K-562 leukemia) of over 100 µM. It also gave a TGI (SK-MEL-28 melanoma) of 2.04 µM, a TGI (SW-620 colon) of 2.02 µM and a TGI (SK-OV-3 ovarian) of 1.44 µM. It also gave a TGI (KM12 colon) of 0.418 µM, a TGI (COLO 205 colon) of 0.37 µM and a TGI (RPMI-8226 leukemia) of 1.3 µM. It also gave a TGI (CAKI-1 renal) of 2.33 µM, a TGI (SNB-75 CNS) of 1.16 µM and a TGI (786-0 renal) of 1.22 µM. The TGI (MDA-N) was 1.26 µM, the TGI (UACC-257 melanoma) was 1.66 µM and the TGI (M14 melanoma) was 1.45 µM. The TGI (PC-3 prostate) was 1.1 µM, the TGI (BT-549 breast) was 1.18 µM and the TGI (MDA-MB-435) was 1.32 µM. The TGI (RXF 393 renal) was 1.37 µM, the TGI (SK-MEL-2 melanoma) was 2.03 µM and the TGI (TK-10 renal) was 1.83 µM. The TGI (HCC-2998 colon) was 1.76 µM, the TGI (CCRF-CEM leukemia) was 1.55 µM and the TGI (EKVX NSCLC) was 2.21 µM. The TGI (DU-145 prostate) was 1.26 µM, the TGI (ACHN renal) was 1.31 µM and the TGI (HOP-62 NSCLC) was 1.03 µM.
